What was measured:
Assay in all cases: relative viability (nuclei count vs DMSO), 5 days (fraction); higher = more cells survive
[1] = compound: CC1=CC(=CC=C1)NC2=NC(=CS2)C3=CC=NC=C3 + CCNC(=O)c1noc(-c2cc(C(C)C)c(O)cc2O)c1-c1ccc(CN2CCOCC2)cc1 [Luminespib] (partner 0.01 µM)
Outline: (§1)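 One day after seeding in 1536-well plates, lung cancer cell lines were dosed by pin tool. Dosing was either single-drug or a fixed anchor-drug dose plus five library-drug doses (not always all listed) in √10 steps. After 5 days, nuclei were stained in one fix-and-stain step and counted on 4× images, and relative viability is the nuclei count of treated wells over that of vehicle wells, given as the median of duplicate plates.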

[2] = compound: CC1=CC(=CC=C1)NC2=NC(=CS2)C3=CC=NC=C3 + Nc1nc2[nH]cc(CCc3ccc(C(=O)N[C@@H](CCC(=O)O)C(=O)O)cc3)c2c(=O)[nH]1 [Pemetrexed] (partner 0.2 µM)
Outline: as §1

[3] = compound: CC1=CC(=CC=C1)NC2=NC(=CS2)C3=CC=NC=C3 + CC(C)C[C@H](NC(=O)[C@H](Cc1ccccc1)NC(=O)c1cnccn1)B(O)O [Bortezomib] (partner 0.002 µM)
Outline: as §1

[4] = compound: Cc1ccc(NC(=O)c2ccc(CN3CCN(C)CC3)cc2)cc1Nc1nc(-c2cccnc2)cs1 [Masitinib] + Cc1cc(Nc2cc(N3CCN(C)CC3)nc(Sc3ccc(NC(=O)C4CC4)cc3)n2)n[nH]1 [Tozasertib] (partner 0.1 µM)
Outline: as §1

UMC-11
relative viability ([1]; first compound 0.08 µM): 1.01
relative viability ([1]; first compound 0.253 µM): 1.05
relative viability ([1]; first compound 0.8 µM): 1.06
relative viability ([1]; first compound 2.53 µM): 1.07
relative viability ([1]; first compound 8 µM): 1.09
relative viability ([2]; first compound 0.08 µM): 0.662
relative viability ([2]; first compound 0.253 µM): 0.802
relative viability ([2]; first compound 0.8 µM): 0.775
relative viability ([2]; first compound 2.53 µM): 0.834
relative viability ([2]; first compound 8 µM): 0.825
relative viability ([3]; first compound 0.08 µM): 0.761
relative viability ([3]; first compound 0.253 µM): 0.839
relative viability ([3]; first compound 0.8 µM): 0.635
relative viability ([3]; first compound 2.53 µM): 0.67
relative viability ([3]; first compound 8 µM): 0.686
relative viability ([4]; first compound 0.01 µM): 0.204
relative viability ([4]; first compound 0.03162 µM): 0.207
relative viability ([4]; first compound 0.1 µM): 0.198
relative viability ([4]; first compound 0.3162 µM): 0.211
relative viability ([4]; first compound 1 µM): 0.195

Reference: the supplement of paper PMC10307832
